Series [1] deals with Botrytis cinerea. Description: Fungicidal activity, fungicide growth rate method, BC. It counts as cell-based. The note with it: 50 μg/mL; for inhibition at 50 µg/mL: Botrytis cinerea, read-out: fungicidal activity (growth inhibition rate), BC.
Series [2] concerns wheat Gibberella zeae. Description: microbe, parasite or virus in culture. It counts as cell-based. The conditions noted are these: for inhibition at 50 µg/mL: Fusarium graminearum, read-out: fungicidal activity (growth inhibition rate), GZ, 50 μg/mL.
Series [3] relates to Rhizoctonia cerealis. In words: Fungicidal activity, fungicide growth rate method, RC. It counts as cell-based. The conditions noted are these: 50 μg/mL; for inhibition at 50 µg/mL: Ceratobasidium cereale, read-out: fungicidal activity (growth inhibition rate), RC.
The test system of series [4] is Ostrinia furnacalis. Description: Insecticidal activity against Ostrinia furnacalis. It counts as in vivo. The note with it: 100 μg/mL; for pest or weed control at 100 µg/mL: Ostrinia furnacalis, read-out: insecticidal activity, Ostrinia furnacalis.
Series [5] relates to Phytophthora infestans (Mont.) de Bary. In words: microbe, parasite or virus in culture. It counts as cell-based. The conditions noted are these: for inhibition at 50 µg/mL: Phytophthora infestans, read-out: fungicidal activity (growth inhibition rate), PI, 50 μg/mL.
The subject of series [6] is Alternaria solani. Description: Fungicidal activity, fungicide growth rate method, AS. It counts as cell-based. The note with it: 50 μg/mL; for inhibition at 50 µg/mL: Alternaria solani, read-out: fungicidal activity (growth inhibition rate), AS.
Series [7] relates to Apis mellifera ligustica Spin. The note with it: for Death number after 24 h / Death number after 48 h: per replicate of 10 bees.
In series [8] the test system is Helicoverpa armigera (Hübner). Description: Insecticidal activity against Helicoverpa armigera (Hübner). It counts as in vivo. The note with it: 100 μg/mL; for pest or weed control at 100 µg/mL: Helicoverpa armigera, read-out: insecticidal activity, Helicoverpa armigera (Hübner).
In series [9] the test system is Caenorhabditis elegans. In words: Insecticidal activity against Caenorhabditis elegans. It counts as in vivo. The conditions noted are these: Caenorhabditis elegans, 100 μg/mL; read-out: insecticidal activity, Caenorhabditis elegans.
The subject of series [10] is Cercospora arachidicola. In words: Fungicidal activity, fungicide growth rate method, CA. It counts as cell-based. The note with it: 50 μg/mL; for inhibition at 50 µg/mL: Mycosphaerella arachidis, read-out: fungicidal activity (growth inhibition rate), CA.
Series [11] has as its system Physalospora piricola. In words: Fungicidal activity, fungicide growth rate method, PP. It counts as cell-based. The conditions noted are these: 50 μg/mL; for inhibition at 50 µg/mL: read-out: fungicidal activity (growth inhibition rate), PP.
Series [12] relates to Pellicularia sasakii. Description: Fungicidal activity, fungicide growth rate method, PS. It counts as cell-based. The note with it: 50 μg/mL; for inhibition at 50 µg/mL: read-out: fungicidal activity (growth inhibition rate), PS.
Series [13] deals with Mythimna separate (Walker). Description: Insecticidal activity against Mythimna separate (Walker). The conditions noted are these: 100 μg/mL; for pest or weed control at 100 µg/mL: Mythimna, read-out: insecticidal activity, Mythimna separate (Walker). It counts as in vivo.
The subject of series [14] is Sclerotinia sclerotiorum. Description: Fungicidal activity, fungicide growth rate method, SS. It counts as cell-based. The conditions noted are these: 50 μg/mL; for inhibition at 50 µg/mL: Sclerotinia sclerotiorum.

“And” between values parts separate entries of the source, which are not always exact repeats. Identical values can stand only once. Like-named read-outs stand apart in the source and are kept apart here.

Turning to `CCOC(=O)C1C(=O)O[C@]23CC=CC[C@@H]2[C@H](OOC(C)(C)C)C[C@]13O` (stereo partly shown) [Zyj06-127], the inhibition at 50 µg/mL is 45% in series [1]; 36% in series [2]; 40% in series [3]; 2% in series [5]; 7% in series [6]; 23% in series [10]. Further, the results for the inhibition at 50 µg/mL in series [11] and in series [12] were 5% and 4%, respectively. The pest or weed control at 100 µg/mL in series [4] was 0%; in series [8] it was 0%; in series [9], 7%; in series [13] it was 0%. Further, the “Death rate after 48 h (%)” value in series [7] (dosage 5.40 μg a.i./bee) and in series [7] (dosage 7.70 μg a.i./bee) was 0% in each case. Moreover, the “Death number after 24 h” value in series [7] (dosage 5.40 μg a.i./bee) and in series [7] (dosage 7.70 μg a.i./bee) was 0 each time. Also, the “Death number after 48 h” value in series [7] (dosage 5.40 μg a.i./bee) and in [7] (dosage 7.70 μg a.i./bee) was 0 each time.

Take `CCOC(=O)C1C(=O)O[C@]23CC=CC[C@@H]2[C@H](OC)C[C@]13O` (stereo partly shown) [Zyj06-187]: the inhibition at 50 µg/mL was 34% in series [1]; greater than 50% in series [2]; 50% in [3]; 31% in series [5]; 14% in [6]; greater than 50% in series [10]. For the same molecule, the inhibition at 50 µg/mL is 0% in series [12] and 43% in [14]. For the same molecule, the pest or weed control at 100 µg/mL in [4] stood at 0%; in series [8], 0%; in series [9], 8%; in series [13], 10%. Further, the “Death rate after 48 h (%)” value in [7] (dosage 6.08 μg a.i./bee) is 0%; in [7] (dosage 10.6 μg a.i./bee) it was 10.0%. In addition, the “Death number after 24 h” value in series [7] (dosage 6.08 μg a.i./bee) and in series [7] (dosage 10.6 μg a.i./bee) was 0 in each case. Moreover, the “Death number after 48 h” value in series [7] (dosage 6.08 μg a.i./bee) is 0; in series [7] (dosage 10.6 μg a.i./bee) it was 1.

As for `CCOC(=O)C1C(=O)O[C@]23CC=CC[C@@H]2CC[C@]13O` (stereo partly shown) [Zyj07-95], the inhibition at 50 µg/mL was greater than 50% in series [2]; greater than 70% in [3]; 29% in [5]; greater than 60% in series [6]; 57% in series [12]; greater than 50% in series [14]. In addition, the pest or weed control at 100 µg/mL in series [4] was 10%; in series [8], 10%; in series [13], greater than 30%. The “Death rate after 48 h (%)” value in series [7] (dosage 9.36 μg a.i./bee) and in series [7] (dosage 19.9 μg a.i./bee) was 0% in each case. Besides, the “Death number after 24 h” value in series [7] (dosage 9.36 μg a.i./bee) and in series [7] (dosage 19.9 μg a.i./bee) was 0 in each case. The “Death number after 48 h” value in series [7] (dosage 9.36 μg a.i./bee) and in [7] (dosage 19.9 μg a.i./bee) was 0 throughout.

For Ryanodine [reference compound], in [1], the “fungicidal activity (growth inhibition rate), BC” value is reported as 25%. Besides, the “fungicidal activity (growth inhibition rate), GZ” value in [2] (50 μg/mL) worked out at 20%. In [3], the “fungicidal activity (growth inhibition rate), RC” value amounted to 50%. The “insecticidal activity, Ostrinia furnacalis” value in series [4] amounted to 100%. Moreover, the “fungicidal activity (growth inhibition rate), PI” value in series [5] (50 μg/mL) is 30%. Besides, the “fungicidal activity (growth inhibition rate), AS” value in [6] amounted to 25%. Also, in series [8], the “insecticidal activity, Helicoverpa armigera (Hübner)” value was 100%. Moreover, the “fungicidal activity (growth inhibition rate), CA” value in series [10] was 10%. The “fungicidal activity (growth inhibition rate), PP” value in series [11] turned out to be 25%. In addition, the “fungicidal activity (growth inhibition rate), PS” value in [12] was found to be 32%. In series [13], the “insecticidal activity, Mythimna separate (Walker)” value came out at 100%. Further, the “fungicidal activity (growth inhibition rate), SS” value in series [14] was determined as 25%.

On to `C=CC[C@@H]1C[C@]2(O)CC(O)O[C@@]23CC=CC[C@H]13` (stereo partly shown) [Zyj07-29], for which the inhibition at 50 µg/mL in series [1] came out at 27%; in series [2], 7%; in series [3], 0%; in series [5], 25%; in series [6], 0%; in series [10], 5%. For the same molecule, the inhibition at 50 µg/mL in [11] amounted to 45%; in series [12], 0%. The pest or weed control at 100 µg/mL is 10% in series [4], 15% in series [8], greater than 30% in series [9] and greater than 30% in series [13]. The “Death rate after 48 h (%)” value in series [7] (dosage 3.68 μg a.i./bee) is reported as 5.0%; in series [7] (dosage 4.39 μg a.i./bee), 0%. In addition, the “Death number after 24 h” value in series [7] (dosage 3.68 μg a.i./bee) and in series [7] (dosage 4.39 μg a.i./bee) was 0 throughout. For the same molecule, the “Death number after 48 h” value in [7] (dosage 3.68 μg a.i./bee) is 0 and 1; in series [7] (dosage 4.39 μg a.i./bee), 0.

On to `CC(C)(C)OO[C@@H]1CC(=O)[C@@]2(O)CC=CC[C@H]12` [Zyj06-92-2], for which the inhibition at 50 µg/mL in series [1] was 30%; in [3], greater than 70%; in [5], 15%; in series [6] it was greater than 60%; in series [12], 41%; in series [14], 38%. Further, the pest or weed control at 100 µg/mL is 10% in series [4], 10% in series [8], 20% in [9] and 20% in [13].

For the molecule `C=CC[C@@H]1C[C@@]2(O)C[C@@H](CC=C)[C@H]3CC=CC[C@@]32O1` [Zyj07-98], the inhibition at 50 µg/mL is greater than 50% in [1]; greater than 50% in series [2]; greater than 70% in series [3]; 17% in [5]; greater than 60% in series [6]; 27% in series [12]. This molecule also came in with an inhibition at 50 µg/mL in [14] greater than 50%. The “Death rate after 48 h (%)” value in [7] (dosage 8.47 μg a.i./bee) is 0%. In addition, the “Death number after 24 h” value in [7] (dosage 8.47 μg a.i./bee) came out at 0. The “Death number after 48 h” value in series [7] (dosage 8.47 μg a.i./bee) is 0. In addition, the pest or weed control at 100 µg/mL in series [8] was 0%; in series [9], 25%; in series [13], 0%.

Take `C=CC[C@@H]1CC2=CC(=O)O[C@@]23CC=CC[C@H]13` [Zyj07-92]: the inhibition at 50 µg/mL in series [1] was 30%; in series [3], greater than 70%; in series [5] it was 15%; in series [6] it was greater than 60%; in [12] it was 40%; in series [14], 38%. In addition, the values for the pest or weed control at 100 µg/mL in series [4], in series [8] and in series [13] were 0%, 0% and 20%, respectively. Moreover, the “Death rate after 48 h (%)” value in series [7] (dosage 7.44 μg a.i./bee) and in [7] (dosage 14.3 μg a.i./bee) was 5.0% in each case. Further, the “Death number after 24 h” value in [7] (dosage 7.44 μg a.i./bee) and in series [7] (dosage 14.3 μg a.i./bee) was 0 throughout. For the same molecule, the “Death number after 48 h” value is 0 and 1 in [7] (dosage 7.44 μg a.i./bee); 0 and 1 in series [7] (dosage 14.3 μg a.i./bee).

For the molecule `C=CC[C@@H]1C[C@]2(O)CC(O)O[C@@]23C[C@H]2O[C@H]2C[C@H]13` (stereo partly shown) [Zyj07-64], the inhibition at 50 µg/mL in series [1] was 41%; in [2], 73%; in [3], greater than 70%; in series [5], 17%; in series [6], greater than 60%; in series [12] it was greater than 60%. The molecule further came in with an inhibition at 50 µg/mL in [14] of 45%. The pest or weed control at 100 µg/mL worked out at 5% in series [4], 10% in series [8], 8% in series [9] and 20% in series [13]. Further, the “Death rate after 48 h (%)” value in [7] (dosage 10.0 μg a.i./bee) was found to be 15.0%; in series [7] (dosage 15.5 μg a.i./bee), 10.0%. The “Death number after 24 h” value in series [7] (dosage 10.0 μg a.i./bee) is 0; in series [7] (dosage 15.5 μg a.i./bee), 0 and 1. Further, the “Death number after 48 h” value is 1 and 2 in [7] (dosage 10.0 μg a.i./bee); 0 and 2 in series [7] (dosage 15.5 μg a.i./bee).

These data come from patent publication US11716992B2, “5A5B6C tricyclic spirolactone derivative, preparation method therefor and use thereof” (NANKAI UNIVERSITY, priority 2017, dated 2023).
